Series [1] in a line: Determination of the free fraction (fu) in plasma. Format: in vitro ADME. Particulars: human. The method, then: (§1) Principle of the Determination of the Free Fraction Via Transil:
(§2) The method described here for determining the free fraction (fu) of a test substance is divided into 2 parts:
(§3) a) Determination of the Transil®/buffer distribution ratio (MAbuffer) by incubating the test substance in a Transil®-buffer (pH 7.4) dispersion and subsequently determining the concentration in the dispersion and in the buffer supernatant.
(§4) b) Determination of the Transil®/plasma distribution ratio (MAplasma) by incubating the test substance in a Transil®-plasma dispersion and subsequently determining the concentration in the dispersion and in the plasma.
(§5) The quotient of the two distribution ratios yields fu.
(§6) In the case of highly protein-bound substances, the plasma is usually diluted with isotonic phosphate buffer (pH 7.4) and then suspended with Transil®. The determination of fu′ (free fraction in diluted plasma) in this diluted protein solution takes place in analogy to the determination of fu. The free fraction in undiluted plasma is calculated from fu′ and the dilution factor.
(§7) Concerning this method, compare also: Schuhmacher, Joachim; Kohlsdorfer, Christian; Buehner, Klaus; Brandenburger, Tim; Kruk, Renate, “High-throughput determination of the free fraction of drugs strongly bound to plasma proteins.” Journal of Pharmaceutical Sciences 2004, 93, 816-830.
(§8) Determination of the Membrane Affinity of a Test Substance after Distribution Between Transil® and Buffer (MAbuffer):
(§9) All incubations are carried out in suitable glass vessels, e.g. glass vials, ground-socket test tubes. In general the total volume is 0.5-5 ml, and the Transil® volume 10-100 μl. In cases where the membrane affinities are expected to be high, the Transil® dispersion can be diluted up to 20-fold with phosphate buffer of pH 7.4, e.g. Dulbecco's PBS. Phosphate buffer of pH 7.4 is provided in the incubation vessels, and the Transil® is pipetted in, after thorough mixing. The test substance is pipetted in at a concentration of, for example, 200 ng/mL, n=6. The proportion of organic solvent should be <2%. The mixtures are incubated at room temperature for 30 min, e.g. on a mini-shaker at an angle of about 45°, at about 400 rpm. In order to determine the 100% value at least one aliquot of, for example, 100 μl, is removed and the remaining mixture is centrifuged at about 1800 g for about 10 min. At least 2 aliquots (e.g. 100 μl) of the supernatant are removed from each sample for the determination of the concentration.
(§10) Determination of MAplasma in Undiluted or Diluted Plasma:
(§11) The total incubation volume and the added volume of Transil® depend on the expected free fraction. In general the total volume is 0.5-1 ml, and the Transil® volume is 10-100 μl. In cases where the free fractions are very low, the plasma of the species to be investigated is diluted, with isotonic buffer solution, pH 7.4, e.g. 10-400-fold, and the Transil® is then added. The subsequent procedure takes place as described above for the determination of the MAbuffer values. […]
(§12) The plasma of the species to be investigated is filtered through a semipermeable membrane. The substance concentration in the filtrate is measured and the free fraction fu is calculated therefrom. […] The substance concentration in the ultrafiltrate (Cu; unbound substance concentration) and in the plasma before centrifugation (C; total substance concentration) is measured. The free fraction is calculated by the formula: fu (%)=Cu/C*100.

A short description of series [2]: Determination of the free fraction (fu) in plasma. The conditions noted are these: rat, plasma, pH 7.4. Format: in vitro ADME, rat. The method, then:
as §1, §2, §3, §4, §5, §6, §7, §8, §9, §10, §11, §12

For series [3], the system named is Staphylococcus aureus 133. In kind it is cell-based. Particulars: 133. The method, then: (§13) Determination of the Minimum Inhibitory Concentration (MIC):
(§14) The MIC is determined in the liquid dilution test in accordance with the NCCLS guidelines. Overnight cultures of Staphylococcus aureus 133, Enterococcus faecalis 27159, E. faecium 4147 and Streptococcus pneumoniae G9a are incubated with the described test substances in a 1:2 dilution series. The MIC determination is carried out with a cell count of 10^5 microbes per ml in Isosensitest medium (Difco, Irvine/USA), with the exception of S. pneumoniae which is tested in BHI broth (Difco, Irvine/USA) with 10% bovine serum with a cell count of 10^6 microbes per ml. The cultures are incubated at 37° C. for 18-24 hours, S. pneumoniae in the presence of 10% CO2.
(§15) The MIC is defined as the lowest concentration of each substance at which no visible bacterial growth occurs any longer. The MIC values are reported in μg/ml.

In series [4] the test system is Streptococcus pneumoniae G9a. In kind it is cell-based. The conditions noted are these: G9a. The method, then:
as §13, §14, §15

In another series the test system is E. faecalis ICB 27159. In kind it is cell-based, Enterococcus faecalis. Particulars: ICB 27159. The method, then: as §13, §14, §15

The values below come from patent US20090105119A1, “ASPARAGINE-10-SUBSTITUTED NONADEPSIPEPTIDES” (priority 2006, published 2009).

*1 amine or outer side, *2 acyl side, *3 side chain or, on linkers, in order; H or OH if unused. Where a SMILES comes first, the peptide text is derived from it. Bridges are numbered along the chain shown (N, C = ends). Side-chain parts run from the residue outwards. [ ]: non-standard residue; d: D form. The star is where a group is joined. X4 = O=C(CNC(=O)[C@@H](O)[C@H](N[*:1])C(=O)[*:2])OCc1ccccc1; Phe(3R-OH) = O=C([C@@H](N[*:1])[C@H](O[*:3])c1ccccc1)[*:2]; X8 = O=C(NCCCN1CCOCC1)[C@@H](O)[C@H](N[*:1])C(=O)[*:2]; X7 = O=C(NCc1ccccc1)[C@@H](O)[C@H](N[*:1])C(=O)[*:2]; X6 = NC(=O)CNC(=O)[C@@H](O)[C@H](N[*:1])C(=O)[*:2]; X3 = O=C([C@@H](N[*:1])[C@H](O)C(=O)[*:3])[*:2]; X5 = NCCNC(=O)[C@@H](O)[C@H](N[*:1])C(=O)[*:2]; Leu(3R-OH) = CC(C)[C@@H](O)[C@H](N)C(=O)O; Ethylenediamine = C(CN[*:2])N[*:1]; aThr = C[C@H](O)[C@H](N)C(=O)O; Cbz = O=C(OCc1ccccc1)*

For the compound `CC[C@H](C)[C@@H]1NC(=O)[C@@H](CCCNC(=N)N)NC(=O)[C@H](CC(C)C)NC(=O)[C@H]([C@H](O)C(C)C)NC(=O)[C@@H](NC(=O)[C@H](CC(C)C)NC(=O)[C@H](N)CC(C)C)[C@@H](c2ccccc2)OC(=O)[C@H](CO)NC(=O)[C@H]([C@H](O)C(=O)NCCCN2CCOCC2)NC(=O)CNC(=O)[C@H]([C@H](C)O)NC1=O` [Example 4, N^4.10-(3-Morpholin-4-yl-propyl)-D-leucyl-L-leucyl-[(3R)-3-hydroxy-L-phenylalanyl]-[(3R)-3-hydroxy-L-leucyl]-L-leucyl-D-arginyl-L-isoleucyl-L-allothreonylglycyl-[(3S)-3-hydroxy-L-asparaginyl]-L-serine C^1.11—O^3.3-lactone Tristrifluoroacetate] (H-[dL]L[Phe(3R-OH)][Leu(3R-OH)]L[dR]I[aThr]G[X8]S; ester 3-C), the unbound share (fraction unbound) at 30 min in series [1] worked out at 0.024. Further, the free fraction (fraction unbound) at 30 min, 200 ng/mL in series [2] amounted to 0.068.

`CC[C@H](C)[C@@H]1NC(=O)[C@@H](CCCNC(=N)N)NC(=O)[C@H](CC(C)C)NC(=O)[C@H]([C@H](O)C(C)C)NC(=O)[C@@H](NC(=O)[C@H](CC(C)C)NC(=O)[C@H](N)CC(C)C)[C@@H](c2ccccc2)OC(=O)[C@H](CO)NC(=O)[C@H]([C@H](O)C(=O)NCc2ccccc2)NC(=O)CNC(=O)[C@H]([C@H](C)O)NC1=O` [Example 6, N^4.10-Benzyl-D-leucyl-L-leucyl-[(3R)-3-hydroxy-L-phenylalanyl]-[(3R)-3-hydroxy-L-leucyl]-L-leucyl-D-arginyl-L-isoleucyl-L-allothreonylglycyl-[(3S)-3-hydroxy-L-asparaginyl]-L-serine C^1.11—O^3.3-lactone Bistrifluoroacetate] (H-[dL]L[Phe(3R-OH)][Leu(3R-OH)]L[dR]I[aThr]G[X7]S; ester 3-C) registered a fraction unbound at 30 min in series [1] of 0.026. This compound also yielded a fraction unbound at 30 min, 200 ng/mL in series [2] of 0.07.

Consider `CC[C@H](C)[C@@H]1NC(=O)[C@@H](CCCNC(=N)N)NC(=O)[C@H](CC(C)C)NC(=O)[C@H]([C@H](O)C(C)C)NC(=O)[C@@H](NC(=O)[C@H](CC(C)C)NC(=O)[C@H](N)CC(C)C)[C@@H](c2ccccc2)OC(=O)[C@H](CO)NC(=O)[C@H]([C@H](O)C(=O)NCC(=O)OCc2ccccc2)NC(=O)CNC(=O)[C@H]([C@H](C)O)NC1=O.O=C(O)C(F)(F)F.O=C(O)C(F)(F)F` [Example 8, N^4.10-(2-(Benzyloxy)-2-oxoethyl)-D-leucyl-L-leucyl-[(3R)-3-hydroxy-L-phenylalanyl]-[(3R)-3-hydroxy-L-leucyl]-L-leucyl-D-arginyl-L-isoleucyl-L-allothreonylglycyl-[(3S)-3-hydroxy-L-β-asparaginyl]-L-serine C^1.11—O^3.3-lactone Bistrifluoroacetate] (H-[dL]L[Phe(3R-OH)][Leu(3R-OH)]L[dR]I[aThr]G[X4]S; ester 3-C), for which the “MIC S. aureus 133” value in series [3] came to 0.5 µg/mL. For the same compound, the “MIC S. pneumoniae G9a” value in series [4] turned out to be 2 µg/mL. Also, in the series on E. faecalis ICB 27159, the “MIC E. faecalis ICB 27159” value is 16 µg/mL.

As for `CC[C@H](C)[C@@H]1NC(=O)[C@@H](CCCNC(=N)N)NC(=O)[C@H](CC(C)C)NC(=O)[C@H]([C@H](O)C(C)C)NC(=O)[C@@H](NC(=O)[C@H](CC(C)C)NC(=O)[C@H](N)CC(C)C)[C@@H](c2ccccc2)OC(=O)[C@H](CO)NC(=O)[C@H]([C@H](O)C(=O)NCC(N)=O)NC(=O)CNC(=O)[C@H]([C@H](C)O)NC1=O.O=C(O)C(F)(F)F.O=C(O)C(F)(F)F` [Example 10, N^4.10-(2-Amino-2-oxoethyl)-D-leucyl-L-leucyl-[(3R)-3-hydroxy-L-phenylalanyl]-[(3R)-3-hydroxy-L-leucyl]-L-leucyl-D-arginyl-L-isoleucyl-L-allothreonylglycyl-[(3S)-3-hydroxy-L-asparaginyl]-L-serine C^1.11—O^3.3-lactone Bistrifluoroacetate] (H-[dL]L[Phe(3R-OH)][Leu(3R-OH)]L[dR]I[aThr]G[X6]S; ester 3-C), the “MIC S. aureus 133” value in series [3] came out at 0.25 µg/mL. The “MIC S. pneumoniae G9a” value in series [4] amounted to 1 µg/mL. Also, the “MIC E. faecalis ICB 27159” value in the series with E. faecalis ICB 27159 amounted to 2 µg/mL.

In the case of `CC[C@H](C)[C@@H]1NC(=O)[C@@H](CCCNC(=N)N)NC(=O)[C@H](CC(C)C)NC(=O)[C@H]([C@H](O)C(C)C)NC(=O)[C@@H](NC(=O)[C@H](CC(C)C)NC(=O)[C@H](N)CC(C)C)[C@@H](c2ccccc2)OC(=O)[C@H](CO)NC(=O)[C@H]([C@H](O)C(=O)NCCNC(=O)OCc2ccccc2)NC(=O)CNC(=O)[C@H]([C@H](C)O)NC1=O.O=C(O)C(F)(F)F.O=C(O)C(F)(F)F` [Example 9, N^4.10-(2-{[(Benzyloxy)carbonyl]amino}ethyl)-D-leucyl-L-leucyl-[(3R)-3-hydroxy-L-phenylalanyl]-[(3R)-3-hydroxy-L-leucyl]-L-leucyl-D-arginyl-L-isoleucyl-L-allothreon-ylglycyl-[(3S)-3-hydroxy-L-asparaginyl]-L-serine C^1.11—O^3.3-lactone Bistrifluoroacetate] (H-[dL]L[Phe(3R-OH)][Leu(3R-OH)]L[dR]I[aThr]G[X3]([Ethylenediamine-Cbz])S; ester 3-C), in series [3], the “MIC S. aureus 133” value is 0.5 µg/mL. In series [4], the “MIC S. pneumoniae G9a” value came to 2 µg/mL. Also, the “MIC E. faecalis ICB 27159” value with E. faecalis ICB 27159 turned out to be 16 µg/mL.

For the compound `CC[C@H](C)[C@@H]1NC(=O)[C@@H](CCCNC(=N)N)NC(=O)[C@H](CC(C)C)NC(=O)[C@H]([C@H](O)C(C)C)NC(=O)[C@@H](NC(=O)[C@H](CC(C)C)NC(=O)[C@H](N)CC(C)C)[C@@H](c2ccccc2)OC(=O)[C@H](CO)NC(=O)[C@H]([C@H](O)C(=O)NCCN)NC(=O)CNC(=O)[C@H]([C@H](C)O)NC1=O.O=C(O)C(F)(F)F.O=C(O)C(F)(F)F.O=C(O)C(F)(F)F` [Example 12, N^4.10-(2-Aminoethyl)-D-leucyl-L-leucyl-[(3R)-3-hydroxy-L-phenylalanyl]-[(3R)-3-hydroxy-L-leucyl]-L-leucyl-D-arginyl-L-isoleucyl-L-allothreonylglycyl-[(3S)-3-hydroxy-L-asparaginyl]-L-serine C^1.11—O^3.3-lactone Tristrifluoroacetate] (H-[dL]L[Phe(3R-OH)][Leu(3R-OH)]L[dR]I[aThr]G[X5]S; ester 3-C), the “MIC S. aureus 133” value in series [3] came out at 0.5 µg/mL. The “MIC S. pneumoniae G9a” value in series [4] came out at 2 µg/mL. Besides, the “MIC E. faecalis ICB 27159” value against E. faecalis ICB 27159 came out at 8 µg/mL.
